Measured values: patent US20240423968A1, “USE OF PROTEASOME-TARGETING SMALL MOLECULES TO MITIGATE MUSCLE WASTING” (The Board of Regents of the University of Texas System, priority 2023, published 2024)
pIC50: −log10 of the molar value. Like-named read-outs stand apart in the source and are kept apart here.

How the values were obtained:
[1] = system: C2C12 cells; assay: Principal component analysis of AFM-assessed mechanical parameters of model myotubes; type: cell-based, mouse; settings: C2C12 cells treated with TNFα plus compound
Procedure: (§1) Cultured cells growing on dishes were scanned with a Catalyst Atomic Force Microscope (Bruker) mounted on a Nikon Ti inverted epifluorescent microscope. Nanomechanical parameters of cells were collected in the Quantitative Nanomechanical Mapping (PF-QNM) mode of the AFM. Before AFM imaging, optical images were recorded for each cell. SCANASYST-AIR probes were used for imaging after their spring constant was determined with the thermal tuning. Cell boundaries were located with peak force error (PFE) AFM images and further verified with height images. Nanomechanical parameters of cells were captured in three separate PF-QNM channels: elasticity (or stiffness—the Young's modulus), deformation and adhesion. Analysis of these parameters was performed with NanoScope Analysis software v. 1.7 (Osmulski, P. A., et al., Cancer Res. 2021 Aug. 1; 81(15):4110-4123). Force curves were fit to the Sneddon model. Mode values of the mechanical parameters for individual cells were calculated from the corresponding distribution histograms. The Texture Aspect Ratio, as a measure of the spatial isotropy or directionality of the surface texture was calculated from the square height images of cells after applying the first order flatten function (Roughness Analysis in NanoScope Analysis v. 1.7).
Mouse C2C12 myoblasts were purchased in American Tissue Type Collection (ATCC CRL-1772) were cultured in Dulbecco's modified Eagle's medium (DMEM) supplementec with 15% fetal bovine serum (FBS) and penicillin/streptomycin, at 37° C. and 5% CO2. […]
Principal component analysis (PCA) was utilized to evaluate the AFM-assessed mechanical parameters of model myotubes in C2C12 cells treated with TNFα alone or with compounds B1 or C3. […]

[2] = system: C2C12-derived mouse myocytes; assay: Cellular AFM: cell surface isotropy (cytoskeleton organization) of model myotubes; type: cell-based; settings: compound accompanies TNFα; AFM roughness analysis
Procedure: as §1, with “Nanomechanical parameters of cells were captured in three separate PF-QNM channels: elasticity (or stiffness—the Young's modulus), deformation and adhesion. Analysis of these parameters was performed with NanoScope Analysis software v. 1.7 (Osmulski, P. A., et al., Cancer Res. 2021 Aug. 1; 81(15):4110-4123). Force curves were fit to the Sneddon model.” left out, “1.7). […]” for “1.7).”
Cellular atomic force microscopy (AFM) of C2C12-derived mouse myocytes was utilized to show the effect of TNFα on the cytosketon organization of the myotube surface patterns (FIG. 5). The regularity of the pattern can be assessed by roughness analysis of the AFM images.
The surface isotropy parameter can quantify the regularity of the patterns observed in AFM. […]

[3] = system: C2C12 myotubes; assay: Myotube morphology (diameters) in the TNFα-induced muscle atrophy cell culture model; type: cell-based, mouse; settings: for myotube morphology when applied alongside TNFα: TNFα 15 ng/ml for 72 hours, compound added together with TNFα; for effect on cell morphology in the control: compound without TNFα
Procedure: Mouse C2C12 myoblasts were purchased in American Tissue Type Collection (ATCC CRL-1772) were cultured in Dulbecco's modified Eagle's medium (DMEM) supplementec with 15% fetal bovine serum (FBS) and penicillin/streptomycin, at 37° C. and 5% CO2. After reaching confluence the myoblasts were differentiated into myotubes by culturing for 72 hours under low-serum conditions (2% horse serum, 0.5 microgram/ml insulin. After that, model muscle atrophy was induced by the treatment with tumor necrosis factor alpha (TNFα) at 15 ng/ml for 72 hours. Vehicle (dimethylsulfoxide; DMSO) or desired compounds (B1, C3, bortezomib) were added to the culture medium together with TNFα.
Myotubes were visualized as described in Eric J. Stevenson, et al., Journal of Applied Physiology 2005 98:4, 1396-1406. All myotubes analyzed in randomly selected microscope fields, with three diameters per tube and at least 50 myotubes analyzed per experimental point.
The diameters of C2C12 myotubes can be utilized to look for indications of degeneration.

[4] = system: autophagy-related protein 7 (ATG7); assay: Levels of autophagy-related protein 7 (ATG7) in lysates (Western blotting); type: cell-based, mouse; settings: model-wasted cells
From the text: (§2) The mechanism of the anti-wasting action of proteasome modulators can be probed by measuring the 26S activity in lysates and measuring the levels of autophagy-related protein 7 (ATG7) in lysates. Excessive activity of 26S holoenzyme bears prime responsibility for degradation of muscle proteins during wasting. […] Autophagy, alongside proteasome pathway, aggravates degeneration.

[5] = target: 20S human housekeeping proteasome (Homo sapiens, UniProt P28074); assay: 20S ChT-L proteolytic activity assay (Suc-LLVY-AMC hydrolysis, Rpt5 peptide-activated); type: biochemical; settings: for activity against 20S ChT-L proteolysis, in words: SAR comparison
Procedure: Compounds were evaluated for proteasome activity using the 20S human housekeeping proteasome. It was activated with the Rpt5 derived 10-residue peptide that contains the C-terminal HbYX (hydrophobic-Tyr-any AA) motif activating the proteasome in trans and to some extend mimic the activation by the 19S regulatory particle (Osmulski and Gaczynska (2013) Molecular pharmacology 84: 104-113; Smith et al. (2006) J. Struct. Biol. 156: 72-83; Smith et al. (2007) Mol. Cell 27: 731-744). Proteolytic activity was monitored over time using a fluorogenic peptide substrate specific for the chymotrypsin-like active center (ChT-L, Suc-LLVY-AMC) in the presence of a concentration range of the inhibitors. In this activity assay, hydrolysis of the substrate results in release of the highly fluorescent aminomethylcoumarin fluorophore. The linear portions of the fluorescence intensity plots were used to calculate the rates of Suc-LLVY-AMC hydrolysis and an IC50 (concentration of drug at which 50% of the maximum rate inhibition occurs) is determined.

[6] = system: 26S holoenzyme; assay: 26S activity in lysates (in-gel activity assay, Suc-LLVY-MCA overlay); type: cell-based, mouse; settings: model-wasted cells
From the text: as §2

[7] = system: myofibers in quadriceps of tumor-bearing mice; assay: In vivo mouse model of cancer cachexia (nude mice xenografted with PC3 cells), quadriceps myofiber diameters, H&E
Procedure: The mouse model of cancer-related muscle wasting consistent of nude mice xenografted with human cultured androgen-resistant prostate cancer PC3 cells. The mice were treated intra-tumorally (IT) with the vehicle (dimethylsulfoxide; DMSO); 8 control mice) or with 10 mg/kg of compound 3. Three injections per week (Mondays, Wednesdays, and Fridays) were carried for three weeks. After that, mice were sacrificed and quadriceps muscle tissues were preserved by standard formalin fixing. Muscle tissue slices were stained with hematoxilin and eosin (H&E standard staining) to visualize muscle fibers and enable myofiber diameter measurements under a standard microscope. Myofibers for 4 control (vehicle-treated) and 4 compound 3-treated mice were measured.
The quadriceps muscle in tumor-bearing mice treated with C3 […] a weeks for three weeks was compared to control using H&E-stained tissues slices (FIG. 10). Frequency analysis of diameters of myofibers (400 myofibers each) from tumor-bearing mice (4 each of the control-vehicle and c3 (10 mg/kg)) was performed (FIG. 11).

[8] = Table 2, pipecolic acid derivatives, ChT-L activity of 20S, read-out: IC50
[9] = read-out: IC50, ChT-L activity of the 20S proteasome
[10] = Table 3, proline derivatives, ChT-L activity of 20S, read-out: IC50

With `COc1cc(CCCOC(=O)C2CCCCN2C(=O)C(=O)C2CCCCC2)cc(OC)c1OC` (racemic) [B1] the “AFM-assessed mechanical parameters (PCA phenotype)” value (shortened to “AFM-assessed mechanical parameters”) [1] was “preserve the control-like phenotypes”, the “cell surface patterning (surface isotropy)” value [2] was “remains control-like” and the “myotube morphology when applied alongside TNFα” value (“myotube morphology” below) [3] was “restored the morphogy to control-like status”. The “effect on cell morphology in the control” value [3] was “no effect on the cell morphology”, the “autophagy (ATG7 levels in lysates)” value [4] was “does not affect or mitigates autophagy” and the pIC50 [5, 8] was 5.24. The “26S activity in lysates” value [6] was “mitigates the activity”.
With `COc1cc(CCCOC(=O)C2CCCCN2C(=O)OCc2ccccc2)cc(OC)c1OC` (racemic) [Compound 2] the pIC50 [5, 9] was 4.94.
With `COc1cc(CCCOC(=O)[C@@H]2CCCCN2C(=O)OCc2ccccc2)cc(OC)c1OC` [Compound 3] the “AFM-assessed mechanical parameters” value [1] was “preserve the control-like phenotypes”, the “cell surface patterning (surface isotropy)” value [2] was “remains control-like” and the “myotube morphology” value [3] was “restored the morphogy to control-like status”. For the same molecule, the “effect on cell morphology in the control” value [3] was “no effect on the cell morphology”, the “autophagy (ATG7 levels in lysates)” value [4] was “does not affect or mitigates autophagy” and the pIC50 [5, 8] was 5.70. For the same molecule, the pIC50 [5, 9] was 5.51, the “26S activity in lysates” value [6] was “mitigates the activity” and the “diameters of myofibers (frequency analysis)” value ([7]; 400 myofibers each, 4 mice each, 10 mg/kg vs control-vehicle, difference significant at p<1.47×10^−21) was “Higher values of myofiber diameters”. For the same molecule, the “myofiber morphology in quadriceps” value ([7]; tumor-bearing mice, 10 mg/kg intra-tumorally, three weeks, vs vehicle) was “improved myofiber morphology”.
Work on `COc1cc(CCCOC(=O)[C@@H]2CCCCN2C(=O)OCC(C)C)cc(OC)c1OC` [Compound 4] yielded a pIC50 [5, 9] of 4.82.
`COC(=O)N1CCCC[C@H]1C(=O)OCCCc1cc(OC)c(OC)c(OC)c1` [Compound 5] was tested, and the “activity against 20S ChT-L proteolysis, in words” value (from here on “activity … in words”) [5] was “completely abrogated activity” and the pIC50 [5, 8] was less than 4.30.
For `COc1cc(CCOC(=O)[C@@H]2CCCCN2C(=O)OCc2ccccc2)cc(OC)c1OC` [Compound 6], the pIC50 [5, 8] was 4.70.
`COc1cc(COC(=O)[C@@H]2CCCCN2C(=O)OCc2ccccc2)cc(OC)c1OC` [Compound 7] was tested, and the “activity … in words” value [5] was “significantly reduced its activity” and the pIC50 [5, 8] was 4.70.
`O=C(OCCCc1ccccc1)[C@@H]1CCCCN1C(=O)OCc1ccccc1` [Compound 8] was tested, and the “activity … in words” value [5] was “significantly reduced its activity” and the pIC50 [5, 8] was 5.59.
`CCCOC(=O)[C@@H]1CCCCN1C(=O)OCc1ccccc1` [Compound 9] showed a pIC50 [5, 8] of less than 4.30.
For `O=C(O)[C@@H]1CCCCN1C(=O)OCc1ccccc1` [Compound 10], the pIC50 [5, 8] was less than 4.30.
Molecule `COc1cc(CCCOC(=O)[C@@H]2CCCN(C(=O)OCc3ccccc3)C2)cc(OC)c1OC` [Compound 11] has a pIC50 [5, 8] of 4.83.
`COc1cc(CCCOC(=O)[C@@H]2CCCN2C(=O)OCc2ccccc2)cc(OC)c1OC` [Compound 12] was tested, and the “activity … in words” value [5] was “modest activity” and the pIC50 [5, 10] was 4.62.
`O=C(OCCCc1ccccc1)[C@@H]1CCCN1C(=O)OCc1ccccc1` [Compound 13] showed a pIC50 [5, 9] of 5.18.
For `O=C(OCCc1ccccc1)[C@@H]1CCCN1C(=O)OCc1ccccc1` [Compound 14], the “activity … in words” value [5] was “decreased activity” and the pIC50 [5, 10] was 4.72.
In the case of `O=C(OCc1ccccc1)[C@@H]1CCCN1C(=O)OCc1ccccc1` [Compound 15], the “activity … in words” value [5] was “decreased activity” and the pIC50 [5, 10] was 4.47.
`CC(C)C[C@H](NC(=O)[C@H](Cc1ccccc1)NC(=O)c1cnccn1)B(O)O` [bortezomib, reference compound] was tested, and the “AFM-assessed mechanical parameters” value [1] was “does not protect the phenotypes”, the “myotube morphology” value [3] was “failed to protect the myotubes” and the “effect on cell morphology in the control” value [3] was “harmed the cells”. For the same molecule, the “autophagy (ATG7 levels in lysates)” value [4] was “upregulates autophagy”.
